These results are taken from patent US20230218726A1, “TREATMENT OF VIRAL CONJUNCTIVITIS” (Okogen, Inc., priority 2020, published 2023).

For data set [1], the system named is epidemic keratoconjunctivitis (EKC). The settings on record: eye drops tested clinically; cited from earlier work.
The nature of data set [2]: Chromatographic compatibility analyses (cation exchange, size exclusion, BAK method). It is filed as physicochemical. The settings on record: no interference in cation exchange, size exclusion and BAK chromatography; PBS pH 7.4. How it is done:
A formulation was prepared having 0.03% w/v ranpirnase together with oxymetazoline or brimonidine. The formulations were analyzed by chromatography to verify whether the therapeutic agent interferes with ranpirnase. Several chromatography methods were employed, including cation exchange and size exclusion chromatography, as well as benzalkonium chloride (BAK) analysis.
For cation exchange chromatography, analysis was performed with the following solutions: diluent (PBS pH 7.4), oxymetazoline HCl (0.5 mg/mL), placebo, and ranpirnase. Oxymetazoline HCl (0.5 mg/mL) solution was prepared in diluent. Both ranpirnase and its placebo were removed from the refrigerator, warmed to room temperature, and vialed into HPLC vials.
For size exclusion chromatography, analysis was performed on the following solutions: diluent (PBS pH 7.4), oxymetazoline HCl (0.5 mg/mL), placebo, and ranpirnase. Oxymetazoline HCl (0.5 mg/mL) solution was prepared in diluent. Both ranpirnase and its placebo were removed from the refrigerator, warmed to room temperature, and vialed into HPLC vials.
The benzalkonium chloride (BAK) analysis was performed on the following solutions: diluent (PBS pH 7.4), oxymetazoline HCl (0.05 mg/mL), placebo, and ranpirnase. Oxymetazoline HCl (0.5 mg/mL) solution (10×) was diluted to 0.05 mg/mL in diluent. […]
On the technique in general: SEC sorts molecules by how far they enter the pores of the column.

The next data set relates to NFκB. Conditions: in vitro study; cited from earlier work.

On to `Nc1ccn(C[C@@H](CO)OCP(=O)(O)O)c(=O)n1` [cidofovir], for which the “clinical benefit in epidemic keratoconjunctivitis” value in data set [1] was “no definitive benefit was observed”.

For the molecule `Cc1cc(C(C)(C)C)c(O)c(C)c1CC1=NCCN1` [oxymetazoline, 3-(4,5-dihydro-1H-imidazol-2-ylmethyl)-2,4-dimethyl-6-tert-butyl-phenol], the “compatibility of formulating with ranpirnase in an ophthalmic formulation” value in data set [2] was “compatibility”.

B1: ranpirnase: amphibian ribonuclease from Rana pipiens oocytes/early embryos, RNase A superfamily, about 12 kD (protein, UniProt P22069 1-104, looked up)
Protein P-30: QDWLTFQKKHITNTRDVDCDNIMSTNLFHCKDKNTFIYSRPEPVKAICKGIIASKNVLTTSEFYLSDCNVTSRPCKYKLKKSTNKFCVTCENQAPVHFVGVGSC
Turning to B1, the “translocation of NFκB into the nucleus” value in the data set with NFκB is reported as “inhibits translocation of NFκB into the nucleus”.
